The values that follow come from ChEMBL document CHEMBL1201862, “PubChem BioAssay data set” (2004).

Some test systems named below: HCT-116; A498; SK-MEL-2; XF498; NCI-H23; KM-20L2; EKVX; K562; MOLT-4; HL-60; SNB-78; NCI-H460; M19-MEL; HCT-15; OVCAR-8; SK-MEL-28; NCI-H226; SK-OV-3; SNB-19; MDA-N.
What all share (experiment): NCI tumour cell line growth inhibition, 48 h

Molecules are shown by their SMILES. Structures can show the parent of a compound that is named as a salt.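 96-well plates; 48 h exposure; 5 concentrations. Endpoints by linear interpolation between flanking doses. Not reached: highest tested concentration assigned. GI50 marks 50% less growth.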 Activity calls are given as the source filed them. Rule as the data show it: active = GI50 up to about 1.1 µM and inactive = higher. Some results are limits rather than exact numbers.

As to `O=C1C(Cl)=C(Cl)C(=O)N1C1C2CC3CC(C2)CC1C3` (stereo unspecified), the GI50 with HCT-116, in the experiment with A498, in the experiment with SK-MEL-2, with XF498, with NCI-H23 and with KM-20L2 was > 100 µM (inactive) throughout. Besides, the GI50 in the experiment on EKVX was > 100 µM (inactive); in the experiment on K562, 28 µM (inactive); in the experiment with MOLT-4, 21.4 µM (inactive); in the experiment with HL-60, 24.5 µM (inactive); in the experiment with SNB-78, > 100 µM (inactive); in the experiment on NCI-H460, > 100 µM (inactive). The GI50 was > 100 µM (inactive) in the experiment on M19-MEL; greater than 100 µM with HCT-15; > 76.4 µM (inactive) in the experiment on OVCAR-8; > 100 µM (inactive) in the experiment with SK-MEL-28; > 100 µM (inactive) in the experiment with NCI-H226; > 100 µM (inactive) with SK-OV-3. In addition, in the experiment on SNB-19, the GI50 is > 100 µM (inactive).

In the case of `CNNCc1ccc(C(=O)NC(C)C)cc1` [PROCARBAZINE HYDROCHLORIDE], the GI50 was > 500 µM (inactive) with HCT-116; > 500 µM (inactive) with A498; > 500 µM (inactive) in the experiment on SK-MEL-2; > 500 µM (inactive) in the experiment with XF498; > 500 µM (inactive) with NCI-H23; 380 µM (inactive) with KM-20L2. Also, the GI50 with EKVX is > 500 µM (inactive); in the experiment with K562 it was 410 µM (inactive); in the experiment with MOLT-4, 426 µM (inactive); with HL-60, > 478 µM (inactive); with SNB-78, > 500 µM (inactive); in the experiment with NCI-H460, > 500 µM (inactive). Further, the GI50 in the experiment with M19-MEL is > 500 µM (inactive); in the experiment with HCT-15, greater than 415 µM; in the experiment on OVCAR-8, > 500 µM (inactive); in the experiment with SK-MEL-28, > 500 µM (inactive); with NCI-H226, > 381 µM (inactive); in the experiment on SK-OV-3, > 493 µM (inactive). The GI50 with SNB-19 and with MDA-N was > 500 µM (inactive) throughout.

As for `CCC12CCC(O)C1N(C)CCC2Sc1ccccc1` (stereo unspecified), the GI50 in the experiment on HCT-116 is 70 µM (inactive); in the experiment on A498 it was > 100 µM (inactive); with SK-MEL-2, > 100 µM (inactive); in the experiment with XF498 it was 26.4 µM (inactive); in the experiment on NCI-H23 it was > 100 µM (inactive); in the experiment with KM-20L2 it was 41.3 µM (inactive). Moreover, the GI50 in the experiment on EKVX is > 100 µM (inactive); in the experiment with K562, 37.4 µM (inactive); with MOLT-4 it was 28.5 µM (inactive); with HL-60 it was 22.9 µM (inactive); in the experiment with SNB-78, > 100 µM (inactive); in the experiment with NCI-H460, > 100 µM (inactive). Moreover, the GI50 is > 100 µM (inactive) with M19-MEL; greater than 100 µM in the experiment on HCT-15; > 100 µM (inactive) in the experiment on OVCAR-8; 75.3 µM (inactive) in the experiment on SK-MEL-28; 23.4 µM (inactive) with NCI-H226; > 100 µM (inactive) with SK-OV-3. In the experiment on SNB-19, the GI50 was > 100 µM (inactive).

Take `Nc1ncn([C@H]2C[C@H](O)[C@@H](CO)O2)c(=O)n1` [DECITABINE]: the GI50 with HCT-116 was 48.9 µM (inactive); with A498, 135 µM (inactive); in the experiment on SK-MEL-2 it was 38.1 µM (inactive); in the experiment on XF498, 25.5 µM (inactive); with NCI-H23 it was 118 µM (inactive); in the experiment with KM-20L2, > 375 µM (inactive). Also, the GI50 with EKVX is 104 µM (inactive); in the experiment on K562, 18.7 µM (inactive); in the experiment with MOLT-4, 11.6 µM (inactive); with HL-60 it was > 24.8 µM (inactive); in the experiment with SNB-78 it was 373 µM (inactive); with NCI-H460, 6.59 µM (inactive). Moreover, the GI50 was 5.86 µM (inactive) in the experiment with M19-MEL; 2.77 µM in the experiment on HCT-15; 16.9 µM (inactive) in the experiment with OVCAR-8; 97.3 µM (inactive) in the experiment with SK-MEL-28; 68.7 µM (inactive) in the experiment with NCI-H226; 76.2 µM (inactive) in the experiment on SK-OV-3. Also, the GI50 with SNB-19 is 138 µM (inactive); in the experiment with MDA-N, 1.46 µM (inactive).

In the case of `CC1=C(O)C(=O)c2cn(C)cc2C1=O`, the GI50 with HCT-116, with A498, in the experiment with SK-MEL-2, with XF498, in the experiment on NCI-H23 and in the experiment on KM-20L2 was > 100 µM (inactive) throughout. The GI50 with EKVX, with K562, with MOLT-4, in the experiment on HL-60, in the experiment with SNB-78 and in the experiment on NCI-H460 was > 100 µM (inactive) throughout. Also, the GI50 with M19-MEL was > 100 µM (inactive); in the experiment with HCT-15, greater than 100 µM; with OVCAR-8, > 100 µM (inactive); in the experiment with SK-MEL-28 it was > 100 µM (inactive); in the experiment on NCI-H226, > 100 µM (inactive); in the experiment on SK-OV-3, > 100 µM (inactive). For the same molecule, the GI50 with SNB-19 is > 100 µM (inactive).

`Cc1ccc(C2C(Cl)C(=O)N2NC(=O)c2ccc(N)cc2)cc1` (stereo unspecified): the GI50 was 15 µM (inactive) in the experiment on HCT-116; 22.5 µM (inactive) in the experiment on A498; 1.33 µM (inactive) with SK-MEL-2; 13.3 µM (inactive) in the experiment with XF498; 16 µM (inactive) in the experiment on NCI-H23; 23.8 µM (inactive) in the experiment on KM-20L2. Also, the GI50 in the experiment with EKVX was 28.8 µM (inactive); with K562 it was 22.5 µM (inactive); in the experiment with MOLT-4 it was 11.4 µM (inactive); with HL-60, 12.1 µM (inactive); in the experiment on SNB-78, 5.46 µM (inactive); in the experiment on NCI-H460, 17.6 µM (inactive). In addition, the GI50 with M19-MEL was 19.8 µM (inactive); in the experiment with HCT-15, 15.7 µM; in the experiment on OVCAR-8, 14.4 µM (inactive); in the experiment with SK-MEL-28, 12.4 µM (inactive); with NCI-H226 it was 27.4 µM (inactive); with SK-OV-3 it was 20.1 µM (inactive). The GI50 in the experiment with SNB-19 is 18.4 µM (inactive).
